Assay results taken from publication PMC9126943, “ADAMTS4-specific MR probe to assess aortic aneurysms in vivo using synthetic peptide libraries” (Nature Communications, 2022).
Entries after “also recorded” stand apart in the source; their conditions may differ. Where a SMILES comes first, the peptide text is derived from it. Bridges are numbered along the chain shown (N, C = ends). The star is where a group is joined. Cy5(nonsulfonated) = CN1C(=CC=CC=CC2=[N+](CCCCCC(=O)*)c3ccccc3C2(C)C)C(C)(C)c2ccccc21

Biological target: T1, ADAMTS5 (Homo sapiens, UniProt Q9UNA0)
T1 construct: His; purchased BioTeZ Berlin-Buch GmbH 30 400 502
T1 sequence (Q9UNA0 262-930): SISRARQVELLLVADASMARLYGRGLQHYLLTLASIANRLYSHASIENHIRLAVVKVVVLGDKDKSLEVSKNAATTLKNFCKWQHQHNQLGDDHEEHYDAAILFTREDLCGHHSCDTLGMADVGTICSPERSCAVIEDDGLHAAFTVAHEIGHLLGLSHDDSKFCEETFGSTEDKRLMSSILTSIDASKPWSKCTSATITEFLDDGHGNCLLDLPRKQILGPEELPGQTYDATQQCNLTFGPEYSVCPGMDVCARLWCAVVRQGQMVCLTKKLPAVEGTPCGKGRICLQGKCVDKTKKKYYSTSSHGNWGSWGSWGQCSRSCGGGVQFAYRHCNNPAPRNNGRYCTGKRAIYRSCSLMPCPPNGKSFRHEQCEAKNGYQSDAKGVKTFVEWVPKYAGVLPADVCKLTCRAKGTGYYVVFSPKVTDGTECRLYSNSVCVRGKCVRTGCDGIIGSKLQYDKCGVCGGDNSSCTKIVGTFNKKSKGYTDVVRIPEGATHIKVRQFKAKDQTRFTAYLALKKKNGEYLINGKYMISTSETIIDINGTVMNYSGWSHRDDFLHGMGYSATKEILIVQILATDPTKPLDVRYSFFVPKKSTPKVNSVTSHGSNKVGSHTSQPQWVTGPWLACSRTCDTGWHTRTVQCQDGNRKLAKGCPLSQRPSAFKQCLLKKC
Experiment: MST instrument, ligand-dependent fluorescence change, Cy5-labeled peptide vs ADAMTS5
Assay type: binding
Settings: Cy5-labeled peptide 3 nM, ADAMTS5 starting concentration 2.46 µM, n = 3
Description: Microscale thermophoresis (MST) was performed on a Monolith Pico (NanoTemper, Munich, Germany). The Cy5-labeled peptides were diluted into the MST buffer (150 mM NaCl, 50 mM TRIS-HCl, 5 mM CaCl2, and Tween-20) to reach a dilution of 6 nM. ADAMTS4, ADAMTS5, and ADAMTS1 were directly used with the supplied concentration. For ADAMTS4, the starting concentration was 4.96 µM, while for ADAMTS1 it was 4.88 µM and for ADAMTS5 it was 2.46 µM. Since we saw a loss of binding after centrifugation, the use of protein concentrators were inappropriate. 20 µl of the protein solutions were transferred into a PCR tube. 10 µl of this first vial was transferred into a second vial and mixed by pipetting with 10 µl of the MST buffer. […] The capillaries were transferred into the Monolith tray and measured with 10% excitation power on the pico-red excitation on high MST power at 25 °C. […] We detected a ligand-dependent fluorescence change for some of the systems. We checked for ADAMTS4 and the ADAMTS4-specific-Cy5-labeled probe via a saturation test for specifying the ligand-dependent fluorescence change. […] The samples were heated at 95 °C for 5 min and measured in the MST. The fluorescence difference between the concentrations was afterward at the same level. Each measurement was repeated three times independently and the binding constant was calculated by merging all three measurements. […]

C[N+]1=C(C=CC=CC=C2N(CCCCCC(=O)NCCCC[C@H](NC(=O)CNC(=O)CNC(=O)[C@H](CO)NC(=O)CNC(=O)CNC(=O)[C@H](CO)NC(=O)[C@@H]3CSSC[C@H](N)C(=O)N[C@@H](CO)C(=O)N[C@@H](CCCNC(=N)N)C(=O)N[C@@H](CCCNC(=N)N)C(=O)NCC(=O)N3)C(=O)NCC(N)=O)c3ccccc3C2(C)C)C(C)(C)c2ccccc21 [Cy5-labeled probe] (H-CSRRGCSGGSGGK(Cy5(nonsulfonated))G-NH2; disulfide 1-6; N-terminus and C-terminus assumed)
binding to ADAMTS5, in words: determination of the binding constant is not possible; also recorded: plateau was not reached; also recorded: a ligand dependent fluorescence change occurs
